The target of experiment [1] is T1, Bcl-2-related protein A1 (Mus musculus, UniProt Q07440).
T1 sequence (Q07440 whole entry): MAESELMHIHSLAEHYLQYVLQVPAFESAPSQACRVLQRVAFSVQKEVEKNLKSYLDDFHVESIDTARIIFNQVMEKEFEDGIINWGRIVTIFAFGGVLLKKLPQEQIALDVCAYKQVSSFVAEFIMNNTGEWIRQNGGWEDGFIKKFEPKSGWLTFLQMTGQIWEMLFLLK
In words: Bfl-1 inhibitors, primary screen, biochemical, fluorescence polarization, FITC-Bid, mouse (AID 432).

Experiment [2] has as its target T2, Voltage-gated N-type calcium channel alpha-1B subunit/Amyloid beta A4 precursor protein-binding family A member 1 (Homo sapiens, UniProt Q00975+Q02410). The class given is protein assay.
For experiment [3], the target named is T2, Voltage-gated N-type calcium channel alpha-1B subunit/Amyloid beta A4 precursor protein-binding family A member 1. The class given is protein assay. This is another data set of the same source.
Experiment [4] concerns the target T1, Bcl-2-related protein A1. The experiment is described as follows: Bfl-1 inhibitors blocking BH3 peptide binding, confirmation, biochemical, TR-FRET, mouse Bfl-1 (AID 621).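 Note: TR-FRET binding of GST-Bfl-1 to FITC-labelled Bid peptide via terbium antibody.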
The target in experiment [5] is Beta-lactamase (Pseudomonas aeruginosa, UniProt Q79MP6).
Experiment [6] addresses Dual specificity protein phosphatase 6 (Rattus norvegicus, UniProt Q64346). The experiment is described as follows: MKP-3 phosphatase inhibitors, primary screen, biochemical, rat enzyme, in vitro (AID 425).
The target in experiment [7] is Beta-lactamase (Salmonella choleraesuis (strain SC-B67), UniProt Q5J463).
For experiment [8], the target named is Mitogen-activated protein kinase 10 (Homo sapiens, UniProt P53779). In words: Dose response biochemical screening assay for inhibitors of c-Jun N-Terminal Kinase 3 (JNK3). [Related pubchem assays: 746 ].
Experiment [9] can be described thus: NIH-3T3 fibroblast cytotoxicity, dose response, cytotoxicity control, cell-based, fluorescence, Alamar Blue, secondary assay (AID 2327).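 Note: NIH-3T3 mouse fibroblasts cultured with fluconazole at 8 µg/mL.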 The class given is functional.
The target in the next experiment is Galanin receptor type 2 (Homo sapiens, UniProt O43603). In words: Dose Response cell-based high-throughput screening assay to identify antagonists of galanin receptor 2 (GALR2). [Related pubchem assays: 828, 866 ]. The format is functional.
Experiment [10] in a line: C. albicans growth with fluconazole, confirmation, fluorescence, retest (AID 2467). The class given is functional, cell-based.
The target in experiment [11] is T3, Serine/threonine-protein phosphatase (Candida dubliniensis (strain CD36 / CBS 7987 / NCPF 3949 / NRRLY-17841) (Yeast), UniProt B9W6M3).
T3 sequence (B9W6M3 whole entry): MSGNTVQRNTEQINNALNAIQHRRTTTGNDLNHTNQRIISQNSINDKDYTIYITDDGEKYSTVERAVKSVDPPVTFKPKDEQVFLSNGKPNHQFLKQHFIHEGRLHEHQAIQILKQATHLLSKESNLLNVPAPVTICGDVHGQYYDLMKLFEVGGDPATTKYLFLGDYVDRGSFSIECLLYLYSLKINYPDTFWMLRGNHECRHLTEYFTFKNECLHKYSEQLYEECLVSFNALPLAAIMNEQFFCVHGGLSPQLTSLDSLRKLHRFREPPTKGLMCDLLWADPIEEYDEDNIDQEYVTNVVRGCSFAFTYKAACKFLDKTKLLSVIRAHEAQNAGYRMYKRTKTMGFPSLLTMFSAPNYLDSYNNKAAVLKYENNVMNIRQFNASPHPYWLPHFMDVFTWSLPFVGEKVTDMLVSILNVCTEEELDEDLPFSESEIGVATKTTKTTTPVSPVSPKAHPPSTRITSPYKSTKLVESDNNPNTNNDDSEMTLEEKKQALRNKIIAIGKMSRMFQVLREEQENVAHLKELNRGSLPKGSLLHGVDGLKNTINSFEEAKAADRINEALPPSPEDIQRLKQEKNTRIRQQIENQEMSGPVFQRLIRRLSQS
In words: calcineurin pathway inhibitors in yeast reporter, dose response, S. cerevisiae, CDRE-lacZ, luminescence, secondary (AID 2388).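 Note: yeast reporter cells carrying a calcineurin-responsive lacZ construct stimulated with calcium chloride; luminescent beta-galactosidase reporter signal in whole cells rather than isolated phosphatase activity; potency for inhibition where a drop in reporter signal means calcineurin blockade.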 The class given is functional, cell-based.

The next experiment deals with INS1. In words: beta cell apoptosis inhibitors, cytokine rescue, dose response, luminescence, retest (AID 449756).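 Note: cell death triggered by IL-1 beta plus TNF-alpha plus IFN-gamma mixture; protective hits raise ATP signal compared with cytokine alone wells.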 The class given is functional, cell-based. As to conditions: Rattus norvegicus.
Experiment [12] has as its target ATP-dependent molecular chaperone HSP82 (Candida albicans (strain WO-1) (Yeast), UniProt C4YTQ8). In words: loss of DOC-induced GRE-beta-galactosidase reporter signal, dose response, Hsp90 inhibitor project, S. cerevisiae, luminescence (AID 2400).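 Note: beta-galactosidase luminescence from glucocorticoid response element reporter as proxy for Hsp90 function; inhibitor potency where signal loss means Hsp90 inhibition.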 The class given is functional, cell-based.
The next experiment has as its target Protein Wnt-3a (Mus musculus, UniProt P27467). The experiment is described as follows: Wnt3a-driven reporter signaling inhibition, dose response, selectivity assay for Gli-SUFU antagonist project, Wnt-LIGHT cells, luminescence (AID 651570).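 Note: Wnt-LIGHT reporter cells stimulated with conditioned medium from Wnt3a-producing cells.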 The format is functional. Particulars: read-out: IC50_Mean.
Experiment [13] addresses Serine/threonine-protein phosphatase PP1-alpha catalytic subunit (Homo sapiens, UniProt P62136). The experiment is described as follows: PP1 phosphatase inhibitors, dose response, biochemical, fluorescence (AID 2394).
The nature of experiment [14]: microbe, parasite or virus in culture. The format is functional. As to conditions: Mycobacterium tuberculosis.
The target in experiment [15] is Serine/threonine-protein phosphatase (Homo sapiens, UniProt Q9BPW0). The experiment is described as follows: PP5 phosphatase inhibitors, dose response, biochemical, fluorescence (AID 2395).
Experiment [16] concerns the target T4, Replicative DNA helicase DnaB (Mycobacterium tuberculosis, UniProt P9WMR3).
T4 sequence (P9WMR3 whole entry): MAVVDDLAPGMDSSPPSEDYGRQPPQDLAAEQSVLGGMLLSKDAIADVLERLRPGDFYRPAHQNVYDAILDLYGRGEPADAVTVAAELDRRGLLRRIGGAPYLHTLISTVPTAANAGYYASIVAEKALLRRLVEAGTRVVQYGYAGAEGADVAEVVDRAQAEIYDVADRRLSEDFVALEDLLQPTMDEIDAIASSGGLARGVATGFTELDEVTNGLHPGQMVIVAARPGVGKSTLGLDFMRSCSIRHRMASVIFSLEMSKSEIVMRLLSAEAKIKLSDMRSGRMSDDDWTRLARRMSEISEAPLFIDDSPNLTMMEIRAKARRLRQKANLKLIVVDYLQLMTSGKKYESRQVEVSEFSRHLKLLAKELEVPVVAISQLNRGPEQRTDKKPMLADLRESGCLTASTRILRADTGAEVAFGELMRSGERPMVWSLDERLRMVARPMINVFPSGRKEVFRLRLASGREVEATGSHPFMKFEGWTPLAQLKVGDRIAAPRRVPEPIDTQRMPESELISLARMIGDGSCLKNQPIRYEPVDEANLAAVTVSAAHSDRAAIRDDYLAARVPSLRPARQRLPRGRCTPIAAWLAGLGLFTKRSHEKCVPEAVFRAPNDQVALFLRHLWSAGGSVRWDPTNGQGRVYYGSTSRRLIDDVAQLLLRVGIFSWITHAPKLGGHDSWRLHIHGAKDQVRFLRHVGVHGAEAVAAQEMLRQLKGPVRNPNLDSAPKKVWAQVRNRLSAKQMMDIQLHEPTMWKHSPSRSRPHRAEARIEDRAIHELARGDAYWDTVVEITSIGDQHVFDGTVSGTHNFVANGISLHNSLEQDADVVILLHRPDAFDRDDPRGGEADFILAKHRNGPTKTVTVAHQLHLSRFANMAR
The experiment is described as follows: DnaB intein splicing inhibitors, dose response, biochemical, cell-free fluorescence (AID 449749). The format is functional.

In experiment [17] the target is T5, Apoptotic protease-activating factor 1 (Homo sapiens, UniProt O14727).
T5 sequence (O14727 whole entry): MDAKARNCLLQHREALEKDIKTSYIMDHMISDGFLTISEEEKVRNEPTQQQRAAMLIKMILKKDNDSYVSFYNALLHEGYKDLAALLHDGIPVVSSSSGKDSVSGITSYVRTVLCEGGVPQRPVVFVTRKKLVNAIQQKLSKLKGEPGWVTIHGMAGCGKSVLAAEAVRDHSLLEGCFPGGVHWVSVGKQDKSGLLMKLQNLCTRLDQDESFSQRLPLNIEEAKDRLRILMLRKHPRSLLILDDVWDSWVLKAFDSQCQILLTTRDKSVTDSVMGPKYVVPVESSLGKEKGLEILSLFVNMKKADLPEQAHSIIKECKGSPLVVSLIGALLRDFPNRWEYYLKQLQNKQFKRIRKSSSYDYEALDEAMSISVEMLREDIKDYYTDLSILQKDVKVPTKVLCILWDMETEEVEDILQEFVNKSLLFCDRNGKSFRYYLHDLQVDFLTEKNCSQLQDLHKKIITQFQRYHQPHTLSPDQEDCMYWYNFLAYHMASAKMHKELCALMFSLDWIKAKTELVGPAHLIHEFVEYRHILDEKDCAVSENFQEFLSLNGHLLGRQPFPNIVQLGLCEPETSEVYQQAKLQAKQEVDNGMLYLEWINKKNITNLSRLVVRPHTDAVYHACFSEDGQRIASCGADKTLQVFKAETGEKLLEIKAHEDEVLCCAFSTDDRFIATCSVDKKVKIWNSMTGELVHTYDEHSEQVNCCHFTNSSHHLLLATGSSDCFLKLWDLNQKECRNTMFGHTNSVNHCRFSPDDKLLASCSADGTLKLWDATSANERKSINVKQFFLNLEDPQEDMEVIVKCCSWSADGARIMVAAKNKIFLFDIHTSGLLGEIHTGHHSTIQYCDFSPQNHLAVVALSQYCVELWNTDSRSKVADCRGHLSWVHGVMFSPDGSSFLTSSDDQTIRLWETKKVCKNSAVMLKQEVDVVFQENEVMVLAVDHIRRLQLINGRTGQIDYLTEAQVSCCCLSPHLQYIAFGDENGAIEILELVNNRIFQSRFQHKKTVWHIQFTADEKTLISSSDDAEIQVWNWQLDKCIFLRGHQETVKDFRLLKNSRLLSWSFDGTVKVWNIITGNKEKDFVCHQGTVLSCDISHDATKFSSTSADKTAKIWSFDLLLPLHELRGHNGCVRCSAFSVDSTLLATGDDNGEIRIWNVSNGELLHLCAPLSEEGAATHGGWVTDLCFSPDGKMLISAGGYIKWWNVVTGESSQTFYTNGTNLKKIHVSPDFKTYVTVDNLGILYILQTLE
The format is functional.

In a further experiment the target is T6, Protein RecA (Mycobacterium tuberculosis, UniProt P9WHJ3).
T6 sequence (P9WHJ3 whole entry): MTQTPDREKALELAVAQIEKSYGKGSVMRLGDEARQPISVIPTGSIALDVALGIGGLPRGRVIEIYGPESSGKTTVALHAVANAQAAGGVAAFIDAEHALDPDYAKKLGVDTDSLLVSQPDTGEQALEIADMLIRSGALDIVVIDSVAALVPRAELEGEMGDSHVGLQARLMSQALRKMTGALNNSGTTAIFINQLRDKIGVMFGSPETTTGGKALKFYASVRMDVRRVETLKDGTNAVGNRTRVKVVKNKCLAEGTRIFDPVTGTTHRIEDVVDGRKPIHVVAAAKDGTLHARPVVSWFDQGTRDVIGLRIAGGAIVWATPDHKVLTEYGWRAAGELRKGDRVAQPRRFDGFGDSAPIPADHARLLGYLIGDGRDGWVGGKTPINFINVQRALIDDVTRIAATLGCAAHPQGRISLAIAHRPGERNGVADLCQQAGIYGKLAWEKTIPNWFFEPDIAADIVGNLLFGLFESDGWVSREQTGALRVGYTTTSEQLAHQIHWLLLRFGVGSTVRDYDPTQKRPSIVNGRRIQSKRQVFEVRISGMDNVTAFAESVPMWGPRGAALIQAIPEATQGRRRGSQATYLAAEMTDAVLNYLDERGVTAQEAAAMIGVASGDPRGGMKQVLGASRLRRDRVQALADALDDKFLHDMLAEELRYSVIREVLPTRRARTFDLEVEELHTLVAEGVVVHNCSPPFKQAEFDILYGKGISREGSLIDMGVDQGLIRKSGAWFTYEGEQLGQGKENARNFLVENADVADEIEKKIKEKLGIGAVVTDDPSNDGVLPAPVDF
The experiment is described as follows: Fluorescence Cell-Free Homogeneous Dose Retest to Identify Inhibitors of RecA-Intein Splicing Activity. [Related pubchem assays (depositor defined):AID2097, AID2223, AID489010, AID492950]. The format is functional.

The target in experiment [18] is T7, Tyrosyl-DNA phosphodiesterase 2 (Homo sapiens, UniProt O95551).
T7 sequence (O95551 whole entry): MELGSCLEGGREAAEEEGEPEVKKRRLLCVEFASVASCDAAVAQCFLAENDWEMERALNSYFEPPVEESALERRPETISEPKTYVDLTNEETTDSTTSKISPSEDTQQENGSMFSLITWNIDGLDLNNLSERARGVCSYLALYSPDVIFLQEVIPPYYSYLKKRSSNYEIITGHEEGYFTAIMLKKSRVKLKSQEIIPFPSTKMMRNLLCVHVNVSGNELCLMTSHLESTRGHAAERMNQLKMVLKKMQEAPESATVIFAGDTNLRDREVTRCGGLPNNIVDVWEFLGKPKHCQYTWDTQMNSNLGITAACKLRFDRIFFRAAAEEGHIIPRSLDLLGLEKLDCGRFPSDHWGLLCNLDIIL
The experiment is described as follows: human TDP2 enzyme inhibitors, dose response, biochemical, epi absorbance, IC50 (AID 743297).

Activity calls are given as the source filed them.

T2 sequence (Q00975 whole entry): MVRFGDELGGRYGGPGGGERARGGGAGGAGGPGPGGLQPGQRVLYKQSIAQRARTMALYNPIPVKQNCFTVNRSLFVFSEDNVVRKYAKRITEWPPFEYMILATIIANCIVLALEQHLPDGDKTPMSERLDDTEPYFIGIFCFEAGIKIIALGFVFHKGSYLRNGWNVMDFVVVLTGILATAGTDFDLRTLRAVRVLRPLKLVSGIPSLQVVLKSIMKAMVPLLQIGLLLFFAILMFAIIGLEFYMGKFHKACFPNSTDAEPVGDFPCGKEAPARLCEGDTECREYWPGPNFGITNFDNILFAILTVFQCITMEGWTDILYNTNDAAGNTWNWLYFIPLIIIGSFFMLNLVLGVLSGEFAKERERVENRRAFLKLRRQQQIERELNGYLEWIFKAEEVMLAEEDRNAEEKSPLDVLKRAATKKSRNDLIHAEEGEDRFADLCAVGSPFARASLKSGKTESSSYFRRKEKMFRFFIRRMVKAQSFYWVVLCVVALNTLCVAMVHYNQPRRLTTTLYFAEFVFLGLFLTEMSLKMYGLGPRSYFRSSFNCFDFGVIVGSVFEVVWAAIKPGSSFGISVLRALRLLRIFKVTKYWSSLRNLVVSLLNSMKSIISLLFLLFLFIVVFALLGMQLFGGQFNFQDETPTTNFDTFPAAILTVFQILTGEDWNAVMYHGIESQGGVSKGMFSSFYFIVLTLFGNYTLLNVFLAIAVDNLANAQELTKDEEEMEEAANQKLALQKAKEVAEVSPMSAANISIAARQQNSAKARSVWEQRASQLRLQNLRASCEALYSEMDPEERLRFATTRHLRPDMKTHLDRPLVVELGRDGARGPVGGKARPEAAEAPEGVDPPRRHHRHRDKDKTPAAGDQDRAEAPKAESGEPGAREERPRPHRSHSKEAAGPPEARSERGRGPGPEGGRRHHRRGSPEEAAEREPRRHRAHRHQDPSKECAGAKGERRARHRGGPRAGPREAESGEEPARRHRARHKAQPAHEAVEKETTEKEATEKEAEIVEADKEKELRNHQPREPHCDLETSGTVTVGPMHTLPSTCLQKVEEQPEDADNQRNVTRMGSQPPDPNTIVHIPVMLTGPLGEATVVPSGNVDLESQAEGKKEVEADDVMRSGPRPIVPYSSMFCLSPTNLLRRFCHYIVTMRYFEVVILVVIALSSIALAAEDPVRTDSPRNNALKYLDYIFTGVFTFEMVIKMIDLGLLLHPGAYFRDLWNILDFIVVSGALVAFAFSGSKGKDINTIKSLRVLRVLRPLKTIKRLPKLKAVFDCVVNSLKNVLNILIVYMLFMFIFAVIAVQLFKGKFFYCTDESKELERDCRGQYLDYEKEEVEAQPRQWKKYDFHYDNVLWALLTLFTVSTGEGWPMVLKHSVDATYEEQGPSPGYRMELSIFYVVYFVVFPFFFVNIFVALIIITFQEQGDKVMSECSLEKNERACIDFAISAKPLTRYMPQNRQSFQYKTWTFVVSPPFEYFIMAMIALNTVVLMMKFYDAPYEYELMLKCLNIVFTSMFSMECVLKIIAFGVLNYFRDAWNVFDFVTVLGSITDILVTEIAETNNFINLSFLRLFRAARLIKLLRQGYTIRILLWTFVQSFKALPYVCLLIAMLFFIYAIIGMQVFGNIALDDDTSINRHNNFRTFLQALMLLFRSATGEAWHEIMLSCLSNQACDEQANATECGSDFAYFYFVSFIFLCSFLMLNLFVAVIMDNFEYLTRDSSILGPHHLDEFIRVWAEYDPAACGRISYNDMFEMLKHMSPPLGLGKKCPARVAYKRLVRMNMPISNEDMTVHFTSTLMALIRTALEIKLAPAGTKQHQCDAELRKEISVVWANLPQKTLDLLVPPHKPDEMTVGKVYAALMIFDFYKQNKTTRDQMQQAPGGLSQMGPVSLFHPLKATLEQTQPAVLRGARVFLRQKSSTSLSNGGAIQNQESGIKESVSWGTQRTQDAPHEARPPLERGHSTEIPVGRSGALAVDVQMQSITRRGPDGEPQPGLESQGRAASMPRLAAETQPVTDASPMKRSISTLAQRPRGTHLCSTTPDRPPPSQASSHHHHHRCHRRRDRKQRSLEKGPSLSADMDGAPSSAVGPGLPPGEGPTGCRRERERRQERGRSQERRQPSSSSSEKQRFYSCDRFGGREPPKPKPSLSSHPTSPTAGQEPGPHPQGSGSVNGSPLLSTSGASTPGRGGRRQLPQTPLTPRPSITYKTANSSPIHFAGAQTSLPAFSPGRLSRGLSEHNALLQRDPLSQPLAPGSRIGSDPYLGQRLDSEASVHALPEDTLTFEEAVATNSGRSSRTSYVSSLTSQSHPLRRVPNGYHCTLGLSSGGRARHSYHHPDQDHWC
T2 sequence (Q02410 whole entry): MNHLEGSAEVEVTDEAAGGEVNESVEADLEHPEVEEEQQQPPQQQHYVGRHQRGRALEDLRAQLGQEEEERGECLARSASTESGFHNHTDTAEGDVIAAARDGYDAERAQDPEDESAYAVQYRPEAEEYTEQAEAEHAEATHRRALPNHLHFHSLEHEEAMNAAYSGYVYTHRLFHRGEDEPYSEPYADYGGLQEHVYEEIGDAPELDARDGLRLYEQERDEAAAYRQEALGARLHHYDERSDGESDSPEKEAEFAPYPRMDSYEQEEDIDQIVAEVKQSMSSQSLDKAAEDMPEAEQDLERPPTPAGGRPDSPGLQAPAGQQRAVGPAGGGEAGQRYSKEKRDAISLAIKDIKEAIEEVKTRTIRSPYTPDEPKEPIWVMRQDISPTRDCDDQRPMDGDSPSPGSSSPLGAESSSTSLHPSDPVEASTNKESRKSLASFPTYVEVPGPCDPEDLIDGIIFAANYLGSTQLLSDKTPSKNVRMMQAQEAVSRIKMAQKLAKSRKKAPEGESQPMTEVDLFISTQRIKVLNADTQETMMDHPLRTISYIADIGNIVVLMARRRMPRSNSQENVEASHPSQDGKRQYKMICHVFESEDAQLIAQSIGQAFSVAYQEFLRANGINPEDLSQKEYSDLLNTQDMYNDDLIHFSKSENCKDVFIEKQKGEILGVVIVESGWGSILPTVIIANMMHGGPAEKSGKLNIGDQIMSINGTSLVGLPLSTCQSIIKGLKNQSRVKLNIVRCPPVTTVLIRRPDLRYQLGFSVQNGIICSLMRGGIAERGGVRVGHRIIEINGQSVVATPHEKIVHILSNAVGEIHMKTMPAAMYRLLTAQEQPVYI
Serine/threonine-protein phosphatase PP1-alpha catalytic subunit, sequence (P62136 whole entry): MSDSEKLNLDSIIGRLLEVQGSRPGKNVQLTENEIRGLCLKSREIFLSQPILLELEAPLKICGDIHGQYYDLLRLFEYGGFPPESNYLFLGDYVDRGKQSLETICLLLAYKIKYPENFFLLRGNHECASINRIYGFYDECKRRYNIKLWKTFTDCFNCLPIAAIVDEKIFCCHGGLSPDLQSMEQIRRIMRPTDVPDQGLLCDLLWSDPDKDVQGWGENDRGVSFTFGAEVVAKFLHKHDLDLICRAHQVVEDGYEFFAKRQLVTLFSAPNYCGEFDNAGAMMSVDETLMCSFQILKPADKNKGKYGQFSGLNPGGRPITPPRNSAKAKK
Serine/threonine-protein phosphatase (Homo sapiens, UniProt Q9BPW0), sequence (Q9BPW0 whole entry): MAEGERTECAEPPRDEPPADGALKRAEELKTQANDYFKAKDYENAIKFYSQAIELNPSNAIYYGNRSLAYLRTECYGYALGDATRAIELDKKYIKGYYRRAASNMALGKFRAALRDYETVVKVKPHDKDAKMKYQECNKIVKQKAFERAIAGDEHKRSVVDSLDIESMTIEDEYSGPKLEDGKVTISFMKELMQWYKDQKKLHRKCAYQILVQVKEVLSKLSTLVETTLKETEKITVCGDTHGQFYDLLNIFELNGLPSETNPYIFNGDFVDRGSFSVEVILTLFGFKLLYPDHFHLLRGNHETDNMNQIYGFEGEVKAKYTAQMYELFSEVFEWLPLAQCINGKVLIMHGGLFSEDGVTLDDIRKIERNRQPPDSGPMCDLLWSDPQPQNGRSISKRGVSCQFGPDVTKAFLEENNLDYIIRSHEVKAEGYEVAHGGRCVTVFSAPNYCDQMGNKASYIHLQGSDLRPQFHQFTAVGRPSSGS
Galanin receptor type 2, sequence (O43603 whole entry): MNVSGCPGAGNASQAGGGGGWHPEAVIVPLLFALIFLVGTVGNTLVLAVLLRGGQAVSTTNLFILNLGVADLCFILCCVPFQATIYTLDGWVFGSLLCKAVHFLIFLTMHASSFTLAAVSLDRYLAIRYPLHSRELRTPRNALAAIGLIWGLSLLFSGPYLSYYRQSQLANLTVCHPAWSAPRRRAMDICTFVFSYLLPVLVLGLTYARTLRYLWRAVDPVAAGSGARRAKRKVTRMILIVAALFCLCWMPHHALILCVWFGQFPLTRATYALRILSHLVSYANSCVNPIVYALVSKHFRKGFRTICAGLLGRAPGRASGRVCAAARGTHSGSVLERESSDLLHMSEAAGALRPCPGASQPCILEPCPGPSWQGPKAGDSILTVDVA
Beta-lactamase (Salmonella choleraesuis (strain SC-B67), UniProt Q5J463), sequence (Q5J463 whole entry): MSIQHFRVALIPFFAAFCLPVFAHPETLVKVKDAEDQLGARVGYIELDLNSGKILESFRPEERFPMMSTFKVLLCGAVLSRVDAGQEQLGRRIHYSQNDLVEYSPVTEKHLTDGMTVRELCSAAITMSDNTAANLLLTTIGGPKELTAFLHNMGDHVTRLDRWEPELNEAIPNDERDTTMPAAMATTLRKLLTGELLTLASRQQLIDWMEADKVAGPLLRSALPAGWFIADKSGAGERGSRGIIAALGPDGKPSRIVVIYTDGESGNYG
Protein Wnt-3a, sequence (P27467 whole entry): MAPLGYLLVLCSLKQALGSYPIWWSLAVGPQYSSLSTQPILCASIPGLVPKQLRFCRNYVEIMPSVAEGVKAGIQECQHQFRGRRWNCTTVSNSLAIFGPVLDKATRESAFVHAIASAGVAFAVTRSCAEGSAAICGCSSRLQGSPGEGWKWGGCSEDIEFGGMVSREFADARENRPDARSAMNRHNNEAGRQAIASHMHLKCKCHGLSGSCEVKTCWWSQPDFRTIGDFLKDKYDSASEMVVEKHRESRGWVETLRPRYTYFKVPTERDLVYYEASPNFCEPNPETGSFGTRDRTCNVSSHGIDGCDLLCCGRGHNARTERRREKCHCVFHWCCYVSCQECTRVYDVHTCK

As for `O=C1c2ccccc2-c2onc3ccc(NCCCn4ccnc4)c1c23`, the IC50 at Bcl-2-related protein A1 [1] was > 100 µM (not active); in experiment [2], 3.18 µM (active); in [3], > 50 µM (inactive); on Bcl-2-related protein A1 [4], > 100 µM (not active); on Beta-lactamase [5], 5.38 µM (active); in experiment [6], 1.19 µM (active). The IC50 at Beta-lactamase [7] is 3.02 µM (active); in experiment [8], 22.2 µM (not active).
On to `c1ccc2c(c1)OCC(CNc1ncnc3sccc13)O2` (configuration not stated), for which the EC50 in [9] was > 150 µM (inactive); in experiment [10], 0.27 µM (active); in [11], > 180 µM (inactive); in experiment [12], > 150 µM (inactive). The IC50 is > 42 µM (not active) on Galanin receptor type 2 and 1.83 µM (active) on Protein Wnt-3a. For the same compound, in the experiment on INS1, the AC50 is 0.941 µM (active).
On to `O=C(/C=C/c1ccc(O)cc1)c1ccc(/N=C2\C(=O)c3ccccc3C(O)=C2N2CCCCC2)cc1`, for which the IC50 in experiment [13] was > 67 µM (not active); in [15], 26.4 µM (not active); in experiment [17] it was 2.91 µM (active); in experiment [18], > 128 µM (inactive). The CC50 in experiment [14] is 8.74 µM (active). Moreover, the AC50 in [16] was > 380 µM (inactive). Besides, at Protein RecA, the EC50 was 0.707 µM (active).

For the origin of these results see ChEMBL document CHEMBL1201862, “PubChem BioAssay data set” (2004).
